Experimental data reported in patent US20220096450A1, “Compounds and Methods for Treating or Preventing Heart Failure” (DREXEL UNIVERSITY, priority 2019, published 2022).
Where two headings read alike, the source gives them in different places. Each block holds one compound with its values, some of them ahead of it.

Biological target: SQOR (Homo sapiens, UniProt Q9Y6N5)
Assay: DCIP endpoint assay of SQOR activity
Format: biochemical
Details: read-out: IC50
Protocol: The assay is based on the ability of reduced CoQ1, which is produced in the SQOR reaction, to nonenzymically reduce 2,6-dichloroindiphenol (DCIP) (Δεox-red=20 mM−1 cm−1 at 600 nm). Reaction mixtures containing SQOR, substrates (H2S, sulfite, CoQ1) and various concentrations of an inhibitor are incubated in 96-well plates for 60 s. The reactions are quenched by addition of formaldehyde and N-ethylmaleimide to denature SQOR and consume unreacted H2S, respectively, and are then incubated for 10 min prior to addition of DCIP. The absorbance at 600 nm is read 30 s after DCIP addition by using a BioTek Synergy 2 plate reader.

[1] = Table 1, SAR of Set A/A′ and Set B

SQOR, sequence (Q9Y6N5 whole entry): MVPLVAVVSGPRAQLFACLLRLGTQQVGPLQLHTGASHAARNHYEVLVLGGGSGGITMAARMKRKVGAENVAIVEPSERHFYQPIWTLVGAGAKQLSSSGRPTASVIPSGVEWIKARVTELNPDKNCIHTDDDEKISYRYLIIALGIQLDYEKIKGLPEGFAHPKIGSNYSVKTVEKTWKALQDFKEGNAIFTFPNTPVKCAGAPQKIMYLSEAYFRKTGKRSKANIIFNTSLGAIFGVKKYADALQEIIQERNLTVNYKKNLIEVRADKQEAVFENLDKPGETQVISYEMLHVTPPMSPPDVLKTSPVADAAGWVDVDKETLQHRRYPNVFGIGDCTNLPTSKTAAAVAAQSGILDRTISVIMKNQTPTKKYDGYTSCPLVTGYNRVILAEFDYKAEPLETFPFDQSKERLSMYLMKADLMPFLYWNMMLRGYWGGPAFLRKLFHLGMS

Compound: COc1nc(-c2ccccc2)cc(-c2cccc(N)c2)c1C#N [4-(3-Aminophenyl)-2-methoxy-6-phenylpyridine-3-carbonitrile]
IC50 (Table 3): 1500 nM

Compound: COc1nc2c(c(-c3ccccc3)c1C#N)Cc1ccccc1-2 [Compound 4, 2-methoxy-4-phenyl-5H-indeno[1,2-b]pyridine-3-carbonitrile]
IC50 [1]: 21 nM

Compound: COc1nc(-c2ccccc2N)cc(-c2ccc(F)cc2)c1C#N [6-(2-Aminophenyl)-4-(4-fluorophenyl)-2-methoxypyridine-3-carbonitrile]
IC50 (Table 3): 230 nM

Compound: COc1nc(-c2ccccc2)cc(-c2cccc([N+](=O)[O-])c2)c1C#N [2-Methoxy-4-(3-nitrophenyl)-6-phenylpyridine-3-carbonitrile]
IC50 (Table 3): 48000 nM

Compound: O=[N+]([O-])c1cc(Cl)c(-n2cccc2)cc1N1CCOCC1 [Compound 19, 4-(4-chloro-2-nitro-5-(1H-pyrrol-1-yl)phenyl)morpholine]
IC50 [1]: 440 nM

Next, values leading:

IC50 (Table 3): 540 nM
Compound: COC(=O)N1CCN(CCOc2nc(-c3ncccc3C)cc(-c3ccc(F)cc3)c2C#N)CC1 [Methyl 4-(2-(3-cyano-4-(4-fluorophenyl)-6-(3-methylpyridin-2-yl)pyridin-2-yloxy)ethyl)piperazine-1-carboxylate]

IC50 (Table 2, SAR of Set C): 152 nM
Compound: Cc1cc([N+](=O)[O-])c(S(=O)(=O)c2ccccc2)cc1C(=O)c1ccccc1 [Compound 33, (2-methyl-4-nitro-5-(phenylsulfonyl)phenyl)(phenyl)methanone]

IC50 (Table 2, SAR of Set C): 4900 nM
Compound: COc1ccc(Sc2ccc(C)cc2)c([N+](=O)[O-])c1 [Compound 34, (4-methoxy-2-nitrophenyl)(p-tolyl)sulfane]

IC50 (Table 3): 96 nM
Compound: COC(=O)COCCOc1nc(-c2ncccc2C)cc(-c2ccc(F)cc2)c1C#N [Methyl 2-(3-cyano-4-(4-fluorophenyl)-6-(3-methylpyridin-2-yl)pyridin-2-yloxy) 2-(2-methoxyethoxy) acetate]
